Read-outs that look alike come from different tables or passages of the source.
What was measured:
Experiment in all cases: MIC, broth microdilution (CLSI), substance alone or ATB combined with compound at 4 or 8 μg/mL
SAU 29213 = type: cell-based, S. aureus; conditions: SAU 29213
Summary of the method: (§1)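 Antibiotic MICs were determined in presence of fixed compound at 4 or 8 μg/mL, and compound MICs alone, by visual growth inhibition. Inoculum 5·10^5 CFU/mL in ca-MHB, incubated 35 °C for 16-20 h per CLSI-M7-A7. Glucose-6-phosphate (25 μg/ml) added when fosfomycin was tested.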

ECO 190317 = type: cell-based, E. coli; conditions: ECO 190317; for MIC: Escherichia coli
Summary of the method: as §1

ECO UFR39 = type: cell-based, E. coli; conditions: ECO UFR39
Summary of the method: as §1

KPN 6299 = type: cell-based, K. pneumoniae; conditions: for MIC: Klebsiella pneumoniae
Summary of the method: as §1

KPN BAA-1898 = type: cell-based, K. pneumoniae; conditions: KPN BAA-1898; for MIC: Klebsiella pneumoniae, BAA1898
Summary of the method: as §1

KPN UFR42 = type: cell-based, K. pneumoniae; conditions: KPN UFR42
Summary of the method: as §1

[1] = antibiotic alone, read-out: MIC ATB alone

COCC1=C(C(=O)O)N2C(=O)[C@@H](NC(=O)/C(=N\OC)c3csc(N)n3)[C@H]2SC1 [POD, Cefpodoxime, reference compound]
MIC ATB combined with Example 15 @4 μgml (SAU 29213; with Example 15 at 4 μg/ml): <0.031 µg/mL | MIC ATB combined with Example 16 @4 μg/ml (SAU 29213; with Example 16 at 4 μg/ml): <0.031 µg/mL | MIC (SAU 29213; Staphylococcus aureus, antibiotic alone, read-out: MIC ATB alone): 4 µg/mL | MIC ATB combined with Example 1 @8 μg/ml (ECO 190317; with Example 1 at 8 μg/ml): <0.031 µg/mL | MIC ATB combined with Example 7 @8 μgml (ECO 190317; with Example 7 at 8 μg/ml): <0.031 µg/mL | MIC ATB combined with Example 9 @4 μg/ml (ECO 190317; with Example 9 at 4 μg/ml): <0.031 µg/mL | MIC ATB combined with Example 11 @8 μg/ml (ECO 190317; with Example 11 at 8 μg/ml): <0.031 µg/mL | MIC ATB combined with Example 12 @8 μg/ml (ECO 190317; with Example 12 at 8 μg/ml): <0.031 µg/mL | MIC ATB combined with Example 13 @8 μg/ml (ECO 190317; with Example 13 at 8 μg/ml): <0.031 µg/mL | MIC ATB combined with Example 14 @8 μg/ml (ECO 190317; with Example 14 at 8 μg/ml): <0.031 µg/mL | MIC ATB combined with Example 15 @4 μgml (ECO 190317; with Example 15 at 4 μg/ml): <0.031 µg/mL | MIC ATB combined with Example 16 @4 μg/ml (ECO 190317; with Example 16 at 4 μg/ml): <0.031 µg/mL | MIC (ECO 190317; [1]): > 512 µg/mL | MIC (ECO 190317; substance alone, read-out: MIC): > 512 µg/mL | MIC ATB combined with Example 1 @8 μg/ml (ECO UFR39; with Example 1 at 8 μg/ml): <0.031 µg/mL | MIC ATB combined with Example 7 @8 μgml (ECO UFR39; with Example 7 at 8 μg/ml): <0.031 µg/mL | MIC ATB combined with Example 9 @4 μg/ml (ECO UFR39; with Example 9 at 4 μg/ml): <0.031 µg/mL | MIC ATB combined with Example 11 @8 μg/ml (ECO UFR39; with Example 11 at 8 μg/ml): <0.031 µg/mL | MIC ATB combined with Example 12 @8 μg/ml (ECO UFR39; with Example 12 at 8 μg/ml): <0.031 µg/mL | MIC ATB combined with Example 13 @8 μg/ml (ECO UFR39; with Example 13 at 8 μg/ml): <0.031 µg/mL | MIC ATB combined with Example 14 @8 μg/ml (ECO UFR39; with Example 14 at 8 μg/ml): <0.031 µg/mL | MIC ATB combined with Example 15 @4 μgml (ECO UFR39; with Example 15 at 4 μg/ml): <0.031 µg/mL | MIC ATB combined with Example 16 @4 μg/ml (ECO UFR39; with Example 16 at 4 μg/ml): <0.031 µg/mL | MIC (ECO UFR39; Escherichia coli, antibiotic alone, read-out: MIC ATB alone): > 256 µg/mL | MIC (KPN 6299; [1]): 64 µg/mL | MIC (KPN 6299; substance alone, read-out: MIC): 64 µg/mL | MIC ATB combined with Example 1 @8 μg/ml (KPN 6299; with Example 1 at 8 μg/ml): 0.25 µg/mL | MIC ATB combined with Example 7 @8 μgml (KPN 6299; with Example 7 at 8 μg/ml): 0.25 µg/mL | MIC ATB combined with Example 9 @4 μg/ml (KPN 6299; with Example 9 at 4 μg/ml): <0.031 µg/mL | MIC ATB combined with Example 11 @8 μg/ml (KPN 6299; with Example 11 at 8 μg/ml): <0.031 µg/mL | MIC ATB combined with Example 12 @8 μg/ml (KPN 6299; with Example 12 at 8 μg/ml): <0.031 µg/mL | MIC ATB combined with Example 13 @8 μg/ml (KPN 6299; with Example 13 at 8 μg/ml): 0.125 µg/mL | MIC ATB combined with Example 14 @8 μg/ml (KPN 6299; with Example 14 at 8 μg/ml): <0.031 µg/mL | MIC ATB combined with Example 15 @4 μgml (KPN 6299; with Example 15 at 4 μg/ml): <0.031 µg/mL | MIC ATB combined with Example 16 @4 μg/ml (KPN 6299; with Example 16 at 4 μg/ml): <0.031 µg/mL | MIC ATB combined with Example 1 @8 μg/ml (KPN BAA-1898; with Example 1 at 8 μg/ml): 1 µg/mL | MIC ATB combined with Example 7 @8 μgml (KPN BAA-1898; with Example 7 at 8 μg/ml): 2 µg/mL | MIC ATB combined with Example 9 @4 μg/ml (KPN BAA-1898; with Example 9 at 4 μg/ml): <0.031 µg/mL | MIC ATB combined with Example 11 @8 μg/ml (KPN BAA-1898; with Example 11 at 8 μg/ml): <0.031 µg/mL | MIC ATB combined with Example 12 @8 μg/ml (KPN BAA-1898; with Example 12 at 8 μg/ml): <0.031 µg/mL | MIC ATB combined with Example 13 @8 μg/ml (KPN BAA-1898; with Example 13 at 8 μg/ml): 1 µg/mL | MIC ATB combined with Example 14 @8 μg/ml (KPN BAA-1898; with Example 14 at 8 μg/ml): <0.031 µg/mL | MIC ATB combined with Example 15 @4 μgml (KPN BAA-1898; with Example 15 at 4 μg/ml): <0.031 µg/mL | MIC ATB combined with Example 16 @4 μg/ml (KPN BAA-1898; with Example 16 at 4 μg/ml): <0.031 µg/mL | MIC (KPN BAA-1898; [1]): > 512 µg/mL | MIC (KPN BAA-1898; substance alone, read-out: MIC): > 512 µg/mL | MIC ATB combined with Example 1 @8 μg/ml (KPN UFR42; with Example 1 at 8 μg/ml): >32 µg/mL | MIC ATB combined with Example 7 @8 μgml (KPN UFR42; with Example 7 at 8 μg/ml): >32 µg/mL | MIC ATB combined with Example 9 @4 μg/ml (KPN UFR42; with Example 9 at 4 μg/ml): >32 µg/mL | MIC ATB combined with Example 11 @8 μg/ml (KPN UFR42; with Example 11 at 8 μg/ml): <0.031 µg/mL | MIC ATB combined with Example 12 @8 μg/ml (KPN UFR42; with Example 12 at 8 μg/ml): <0.031 µg/mL | MIC ATB combined with Example 13 @8 μg/ml (KPN UFR42; with Example 13 at 8 μg/ml): >32 µg/mL | MIC ATB combined with Example 14 @8 μg/ml (KPN UFR42; with Example 14 at 8 μg/ml): <0.031 µg/mL | MIC ATB combined with Example 15 @4 μgml (KPN UFR42; with Example 15 at 4 μg/ml): <0.031 µg/mL | MIC ATB combined with Example 16 @4 μg/ml (KPN UFR42; with Example 16 at 4 μg/ml): <0.031 µg/mL | MIC (KPN UFR42; Klebsiella pneumoniae, antibiotic alone, read-out: MIC ATB alone): > 256 µg/mL
